Assay results as given in BigSolDB 2.1.

COCC(=O)Nc1c(I)c(C(=O)NCC(O)CO)c(I)c(C(=O)N(C)CC(O)CO)c1I (stereo not given)
solubility (mole fraction)
Settings | 273.15 K | 278.15 K | 283.15 K | 288.15 K | 293.15 K | 298.15 K | 303.15 K | 308.15 K | 313.15 K | 318.15 K
in DMF | 0.00368 | 0.0038 | 0.00394 | 0.00409 | 0.00427 | 0.00446 | 0.00467 | 0.0049 | 0.00517 | 0.00544
in acetone | 3.54e-05 | 4.29e-05 | 5.29e-05 | 6.52e-05 | 7.88e-05 | 9.34e-05 | 0.00011 | 0.000128 | 0.000149 | 0.000171
in ethanol | 0.000152 | 0.000178 | 0.000215 | 0.000254 | 0.000296 | 0.000339 | 0.000384 | 0.000437 | 0.000495 | 0.000558
in ethyl acetate | 1.36e-05 | 2.01e-05 | 2.74e-05 | 3.57e-05 | 4.52e-05 | 5.65e-05 | 6.84e-05 | 8.46e-05 | 0.000101 | 0.000127
in isopropanol | 5.1e-05 | 6.23e-05 | 7.52e-05 | 9.01e-05 | 0.000108 | 0.000128 | 0.00015 | 0.000177 | 0.000203 | 0.000233
in methanol | 0.000236 | 0.000282 | 0.000349 | 0.000419 | 0.000496 | 0.000576 | 0.000666 | 0.00077 | 0.00088 | 0.000997
in toluene | 9.9e-06 | 1.08e-05 | 1.19e-05 | 1.31e-05 | 1.43e-05 | 1.56e-05 | 1.69e-05 | 1.83e-05 | 1.97e-05 | 2.12e-05
